How the values were obtained:
[1] = Reactivity toward the mediator of inflammation hypochlorous acid (ethene liberation from ACC, GC); assay type: biochemical; conditions: HOCl 25 μM, ACC 1 mM, pH 5.7, 37° C., 30 minutes
Excerpt: Reactivity Toward the Mediator of Inflammation Hypochlorous Acid (HOCl) Cytotoxic hypochlorous acid is a specific product of phagocytosis-competent neutrophilic granulocytes. It is used to kill phagocytosed bacteria and viruses inside these leukocytes. Hypochlorous acid is, however, secreted through the leukocyte membrane into the extracellular medium, i.e. into the surrounding tissue, and there proves to be responsible for unwanted reactions like those observed at foci of inflammation (pain, reddening, swelling). A possible procedure for detecting the reactivity toward HOCI is as follows. HOCI liberates ethene specifically from ACC (1-aminocyclopropane-1-carboxylic acid), and the ethene is determined by gas chromatography. The following mixture is chosen to examine the interaction of the test substance in this model system: [table] The hypochlorous acid is allowed to interact with the bulking agents for 30 seconds and only then is the indicator molecule ACC added. The volume-calibrated reaction vessels which are closed gas-tight are then incubated at 37° C. for 30 minutes, and the ethene liberation is measured by GC. 5-aminosalicylate is employed in concentrations of 0.5-100 μM as positive control.

Caco-2 cells = assay: Protection of intestinal cells from genotoxic agents (comet assay, menadione-induced DNA damage); assay type: cell-based, human; conditions: menadione 2 μM alone (induced DNA damage)
Procedure: The procedure for the method is as follows: The human colon adenocarcinoma cell line Caco-2 was cultivated in Dulbecco's MEM/nut mix F-12 Ham medium (Gibco) with 20% FCS (Gibco) and 1% penicillin/streptomycin (Gibco). The cells were seeded in Petri dishes (ø 35 mm) 24 h before substance incubation. After incubation with the physiological extract from carob fiber (stock solution: 10% w/v carob fiber, Caromax™, Nutrinova, in cell culture medium, working solutions: 0.001-1%), the cells were washed with PBS buffer solution (phosphate buffered salt solution) and subsequently treated with the DNA-damaging agent menadione (2 μM) and trypsinized/centrifuged. This was followed by testing for the preventive activity of the carob fiber extracts. The modulation of DNA damage by the carob fiber extracts compared with the untreated control was checked by single-cell gel electrophoresis (comet assay). The extent of DNA damage was quantified from the proportion of DNA in the comet tail (% tail intensity, TI %). The independent baseline damage was always also measured in control tests.

Row | Compound | Amount of ethene liberated from ACC in % ([1]; 5-aminosalicylate 0.5 μM) [%] | Amount of ethene liberated from ACC in % ([1]; 5-aminosalicylate 1 μM) [%] | Amount of ethene liberated from ACC in % ([1]; 5-aminosalicylate 5 μM) [%] | Amount of ethene liberated from ACC in % ([1]; 5-aminosalicylate 10 μM) [%] | Amount of ethene liberated from ACC in % ([1]; 5-aminosalicylate 50 μM) [%] | Amount of ethene liberated from ACC in % ([1]; 5-aminosalicylate 100 μM) [%] | TI % (proportion of DNA in the comet tail, % tail intensity) (Caco-2 cells) [%]
1 | Nc1ccc(O)c(C(=O)O)c1 [5-Aminosalicylate, 5-aminosalicylate] | 100 | 92 | 52 | 13 | 5 | 3 | 
2 | CC1=CC(=O)c2ccccc2C1=O [menadione] |  |  |  |  |  |  | 13.6
